This passage reports GI50 and TGI results from PubChem BioAssay (NCI).

Several values for one entry are separate records, joined by “and”; a condition that tells them apart may be missing. Equal values may be shown once.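 96-well plates; 48 h exposure; 5 concentrations. Endpoints by linear interpolation between flanking doses. Not reached: highest tested concentration assigned. The concentration for 50% growth inhibition is given as GI50. Definition used: TGI = concentration required for complete inhibition of growth.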

Common to all, as to test: inhibition of tumour cell growth, NCI panel, 48 h
For assay [1], the system named is NCI-H23 lung.
For assay [2], the system named is SK-MEL-28 melanoma.
In assay [3] the test system is SNB-75 CNS.
Assay [4] concerns SK-MEL-2 melanoma.
The test system of assay [5] is HCT-116 colon.
Assay [6] concerns UO-31 renal.
The subject of assay [7] is SN12C renal.
Assay [8] relates to HOP-92 NSCLC.
Assay [9] concerns ACHN renal.
Assay [10] relates to SR leukemia.

As to `CN(C)CC(C(=O)Cc1ccccc1)c1ccccc1` (stereo unspecified), the GI50 in assay [1] is 12.2 µM; in [2] it was 3.22 µM; in [3] it was 2.72 µM; in assay [4] it was 2.54 µM; in assay [5], 1.72 µM; in assay [6] it was 1.69 µM. Moreover, the GI50 is 3.04 µM in [7], 2.78 µM in [8], 1.97 µM in assay [9] and 1.24 µM in assay [10]. Besides, the TGI in [1] turned out to be 30.5 µM; in [2], 10.2 µM; in assay [3], 11.5 µM; in assay [4] it was 5.57 µM; in assay [5], 3.3 µM; in assay [6] it was 3.32 µM. Besides, the TGI in [7] came to 11 µM; in assay [8], 7.5 µM; in [9] it was 3.53 µM; in assay [10] it was 7.55 µM.
As to `CSc1nc(NC2OC(COC(C)=O)C(OC(C)=O)C(OC(C)=O)C2OC(C)=O)c(-c2csc(N)n2)c(=O)n1C` (stereo unspecified), the TGI in [1] is above 100 µM; in [2] it was above 100 µM; in assay [3], 47.8 µM; in assay [4] it was above 100 µM; in assay [5], above 100 µM; in assay [6] it was above 100 µM. Further, the TGI is above 100 µM in assay [7], 63.1 µM in assay [8], above 100 µM in [9] and above 100 µM in assay [10].
With `COc1ccc2c(Cl)cc(NC(=O)Nc3c(C)cccc3C)nc2c1`, the GI50 in assay [1] was 76.9 µM; in assay [2], 31 µM; in assay [3], 1.47 µM; in [4] it was 28.6 µM; in assay [5], 5.72 µM; in [6], 3 µM. Besides, the GI50 is 15.6 µM in assay [7], 4.26 µM in [8], 3.59 µM in assay [9] and 27.5 µM in assay [10]. Further, the TGI in assay [1] was above 100 µM; in assay [2], above 100 µM; in assay [3], 6.01 µM; in assay [4], 85 µM; in assay [5] it was above 100 µM; in assay [6] it was 12.7 µM. In addition, the TGI in assay [7] was above 100 µM; in assay [8] it was 27.4 µM; in [9] it was 24.7 µM; in [10], above 100 µM.
For `Cc1cc(C(=O)O)c(C)n1-c1cccc(C(=O)O)c1`, the GI50 in assay [1], in assay [2], in assay [3], in assay [4], in assay [5] and in assay [6] was above 100 µM in each case. Also, the GI50 in assay [7], in [8], in assay [9] and in [10] was above 100 µM each time. Moreover, the TGI in assay [1], in [2], in assay [3], in [4], in [5] and in [6] was above 100 µM in each case. Further, the TGI in [7], in assay [8], in [9] and in assay [10] was above 100 µM throughout.
As to `Cc1cc(C(=O)NC(CCC(=O)O)C(=O)O)sc1CCC1CNc2nc(N)[nH]c(=O)c2C1` (stereo unspecified), the TGI in assay [1], in assay [2], in assay [3], in assay [4], in [5] and in [6] was above 100 µM throughout. Also, the TGI in assay [7], in [8], in assay [9] and in assay [10] was above 100 µM each time. The GI50 is 0.0435 µM and 0.0643 µM in assay [2]; < 0.0198 µM and 0.0357 µM in assay [5]; 0.0319 µM and 0.0592 µM in [6]; 0.0315 µM and 0.0482 µM in assay [7]; 0.179 µM and 0.0802 µM in assay [8]; 0.0133 µM and 0.0435 µM in assay [9]. The GI50 in assay [10] was < 0.0156 µM and 0.0263 µM.
Regarding `CC12CO[C@@](C)(CC(S(=O)(=O)c3ccccc3)C1)O2` (stereo partly specified), the TGI in assay [1], in [2], in [3], in assay [4], in assay [5] and in assay [6] was above 100 µM each time. The TGI in assay [7], in [8], in assay [9] and in [10] was above 100 µM each time.
In the case of `CCCCC(=O)N/N=C/c1c(O)ccc2ccccc12`, the GI50 in assay [1] is 4.14 µM; in [2], 2.16 µM; in assay [3], 1.57 µM; in assay [4], 3.67 µM; in assay [5], 1.32 µM; in assay [6] it was 1.87 µM. Also, the GI50 was 5.44 µM in [7], 2.01 µM in assay [8], 1.38 µM in [9] and 0.45 µM in assay [10]. In addition, the TGI in [1] was above 100 µM; in assay [2] it was above 52.2 µM; in assay [3] it was above 100 µM; in assay [4] it was above 23.7 µM; in assay [5], above 29.6 µM; in [6], 28 µM. Besides, the TGI in assay [7] is above 100 µM; in [8] it was above 84.5 µM; in [9], above 88.6 µM; in assay [10], 3.57 µM.
Turning to `Clc1ccc2nc(-c3ccccc3)nc(Cl)c2c1`, the TGI in [1] was above 100 µM; in assay [2] it was above 100 µM; in [3], 59.5 µM; in assay [4], above 100 µM; in [5], above 100 µM; in [6], above 100 µM. In addition, the TGI in assay [7] is above 100 µM; in assay [8] it was 50.3 µM; in [9] it was 76.9 µM; in [10] it was above 100 µM.
As for `Oc1cccc(/C=N/Nc2nnc(N/N=C/c3cccc(O)c3)c3ccccc23)c1`, the TGI in assay [1] was determined as 48.6 µM; in assay [2] it was 60.2 µM; in assay [3] it was 50.5 µM; in assay [4] it was 83.6 µM; in assay [5], 43.1 µM; in [6], 52 µM. Moreover, the TGI in assay [7] stood at 30.5 µM; in [8], 76.1 µM; in assay [9], 40.7 µM; in assay [10] it was 7.06 µM.
`O=[N+]([O-])c1cc(Cl)ccc1OCc1ccccc1`: the TGI was 96.5 µM in assay [1]; above 100 µM in assay [2]; 90.8 µM in assay [3]; above 100 µM in assay [4]; above 100 µM in assay [5]; above 100 µM in assay [7]. The TGI in assay [8] is 92.5 µM; in assay [9], above 100 µM; in assay [10] it was above 100 µM.
